# Read-outs that look alike come from different tables or passages of the source. Numbered stars: 1 amine (or outer) side, 2 acyl side, 3 side chain; on linkers, the order of the positions; unused ones are H or OH. Square brackets hold non-standard residues; d marks the D form. Peptide text beside a SMILES is read from it. ξ: configuration not given here. X1 = N=C1NCC(C(O)C(N[*:1])C(=O)[*:2])N1C1OC(CO)C(O)C(O)C1O; ξEnduracididine(βξ-OH,4'ξ) = N=C1NCC(C(O)C(N)C(=O)O)N1; ξCha(3ξ-Me) = CC(C1CCCCC1)C(N)C(=O)O; Cha = N[CH](CC1CCCCC1)C(=O)O
# How the values were obtained:
# Test in all cases: In vitro antibacterial evaluation: minimum inhibitory concentration (MIC), broth dilution method
# Type in all cases: cell-based
# Escherichia coli = test system: Escherichia coli
# Streptococcus sp. = test system: Streptococcus sp.
# In short: (§1)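 Values are minimum inhibitory concentrations, meaning the smallest antibiotic concentration that stops growth of the organism. They come from broth dilution in Muller-Hinton II […] per NCCLS guidance (M7-A2), using 5×10^5 CFU/mL and concentrations from 64 to 0.06 μg/mL.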
# Enterococcus sp. = test system: Enterococcus sp.
# In short: as §1
# Staphylococcus sp. = test system: Staphylococcus sp.
# In short: as §1
# [1] = broth dilution, 18 hours at 35° C.
compound,measurement,setting,value
"CC(C1CCCCC1)C1NC(=O)CNC(=O)C(CO)NC(=O)C(C(O)C2CNC(=N)N2C2OC(CO)C(O)C(O)C2O)NC(=O)C(C(O)C2CNC(=N)N2)NC(=O)C(CC2CCCCC2)NC1=O (stereo not drawn) [Example 53, Cyclo[3-cyclohexylalanyl-3-(2-iminoimidazolidin-4-yl)seryl-3-(3-hexopyranosyl-2-iminoimidazolidin-4-yl)serylserylglycyl-3-cyclohexyl-2-aminobutanoyl]] (cyclo(G[ξCha(3ξ-Me)][Cha][ξEnduracididine(βξ-OH,4'ξ)][X1]S); configuration not given here)",MIC Escherichia coli (GC 4560),Escherichia coli; [1],4 µg/mL
same,MIC Streptococcus agalactiae (GC 4564),"Streptococcus sp.; Streptococcus agalactiae (GC 4564), broth dilution, 18 hours at 35° C.",1 µg/mL
same,MIC Streptococcus pneumoniae (ATCC 6301),"Streptococcus sp.; Streptococcus pneumoniae (ATCC 6301), broth dilution, 18 hours at 35° C.",1 µg/mL
same,MIC Streptococcus pneumoniae (GC 1894),"Streptococcus sp.; Streptococcus pneumoniae (GC 1894), broth dilution, 18 hours at 35° C.",1 µg/mL
same,MIC Streptococcus pneumoniae (GC 4565),"Streptococcus sp.; Streptococcus pneumoniae (GC 4565), broth dilution, 18 hours at 35° C.",4 µg/mL
same,MIC Streptococcus pyogenes (GC 4563),"Streptococcus sp.; Streptococcus pyogenes (GC 4563), broth dilution, 18 hours at 35° C.",1 µg/mL
same,MIC Streptococcus agalactiae (GC 4564),Streptococcus sp.; [1],1 µg/mL
same,MIC Streptococcus pneumoniae (ATCC 6301),Streptococcus sp.; [1],1 µg/mL
same,MIC Streptococcus pneumoniae (GC 1894),Streptococcus sp.; [1],1 µg/mL
same,MIC Streptococcus pneumoniae (GC 4565),Streptococcus sp.; [1],4 µg/mL
same,MIC Streptococcus pyogenes (GC 4563),Streptococcus sp.; [1],1 µg/mL
same,MIC Enterococcus faecalis (GC 2242),"Enterococcus sp.; Enterococcus faecalis (GC 2242), broth dilution, 18 hours at 35° C.",8 µg/mL
same,MIC Enterococcus faecalis (GC 2691),"Enterococcus sp.; Enterococcus faecalis (GC 2691), broth dilution, 18 hours at 35° C.",8 µg/mL
same,MIC Enterococcus faecalis (GC 3059),"Enterococcus sp.; Enterococcus faecalis (GC 3059), broth dilution, 18 hours at 35° C.",8 µg/mL
same,MIC Enterococcus avium (GC 4558),Enterococcus sp.; [1],4 µg/mL
same,MIC Enterococcus faecalis (ATCC 29212),Enterococcus sp.; [1],8 µg/mL
same,MIC Enterococcus faecalis (GC 2242),Enterococcus sp.; [1],8 µg/mL
same,MIC Enterococcus faecalis (GC 2691),Enterococcus sp.; [1],8 µg/mL
same,MIC Enterococcus faecalis (GC 3059),Enterococcus sp.; [1],8 µg/mL
same,MIC Enterococcus faecalis (GC 4552),Enterococcus sp.; [1],8 µg/mL
same,MIC Enterococcus faecalis (GC 4553),Enterococcus sp.; [1],4 µg/mL
same,MIC Enterococcus faecalis (GC 4554),Enterococcus sp.; [1],16 µg/mL
same,MIC Enterococcus faecalis (GC 6189),Enterococcus sp.; [1],4 µg/mL
same,MIC Enterococcus faecium (GC 2243),Enterococcus sp.; [1],2 µg/mL
same,MIC Enterococcus faecium (GC 4556),Enterococcus sp.; [1],8 µg/mL
same,MIC Enterococcus faecium (GC 4557),Enterococcus sp.; [1],2 µg/mL
same,MIC Coagulase Negative Staphylococcus (GC 4547),Staphylococcus sp.; [1],2 µg/mL
same,MIC Coagulase Negative Staphylococcus (GC 4548),Staphylococcus sp.; [1],2 µg/mL
same,MIC Coagulase Negative Staphylococcus (GC 4549),Staphylococcus sp.; [1],1 µg/mL
same,MIC Coagulase Negative Staphylococcus (GC 4551),Staphylococcus sp.; [1],2 µg/mL
same,MIC Staphylococcus aureus SMITH (GC 4543),Staphylococcus sp.; [1],2 µg/mL
same,MIC Staphylococcus haemolyticus (GC 4546),Staphylococcus sp.; [1],1 µg/mL
same,MIC Staphylococcus aureus-SMITH (GC 4543),"Staphylococcus sp.; strain SMITH GC 4543, broth dilution, 18 hours at 35° C.",2 µg/mL
"Cyclo[3-[[2-(2,3,4,6-tetra-O-benzoylhexopyranosyl)amino]-1,3-benzoxazol-5-yl]alanyl-3-(2-iminoimidazolidin-4-yl)seryl-3-(3-hexopyranosyl-2-iminoimidazolidin-4-yl)seryl-serylglycyl-β-methylphenylalanyl] [Example 44]",MIC Escherichia coli (ATCC 25922),Escherichia coli,>64 µg/mL
same,MIC Escherichia coli (GC 4559),Escherichia coli,>64 µg/mL
same,MIC Escherichia coli (GC 4560),Escherichia coli,64 µg/mL
same,MIC Streptococcus agalactiae (GC 4564),Streptococcus sp.,16 µg/mL
same,MIC Streptococcus pneumoniae (ATCC 6301),Streptococcus sp.,8 µg/mL
same,MIC Streptococcus pneumoniae (GC 1894),Streptococcus sp.,16 µg/mL
same,MIC Streptococcus pneumoniae (GC 4565),Streptococcus sp.,32 µg/mL
same,MIC Streptococcus pyogenes (GC 4563),Streptococcus sp.,4 µg/mL
same,MIC Enterococcus avium (GC 4558),Enterococcus sp.,4 µg/mL
same,MIC Enterococcus faecalis (ATCC 29212),Enterococcus sp.,16 µg/mL
same,MIC Enterococcus faecalis (GC 2242),Enterococcus sp.,16 µg/mL
same,MIC Enterococcus faecalis (GC 2691),Enterococcus sp.,16 µg/mL
same,MIC Enterococcus faecalis (GC 3059),Enterococcus sp.,32 µg/mL
same,MIC Enterococcus faecalis (GC 4552),Enterococcus sp.,16 µg/mL
same,MIC Enterococcus faecalis (GC 4553),Enterococcus sp.,8 µg/mL
same,MIC Enterococcus faecalis (GC 4554),Enterococcus sp.,32 µg/mL
same,MIC Enterococcus faecalis (GC 6189),Enterococcus sp.,16 µg/mL
same,MIC Enterococcus faecium (GC 2243),Enterococcus sp.,8 µg/mL
same,MIC Enterococcus faecium (GC 4556),Enterococcus sp.,32 µg/mL
same,MIC Enterococcus faecium (GC 4557),Enterococcus sp.,8 µg/mL
same,MIC Coagulase Negative Staphylococcus (GC 4547),Staphylococcus sp.,64 µg/mL
same,MIC Coagulase Negative Staphylococcus (GC 4548),Staphylococcus sp.,8 µg/mL
same,MIC Coagulase Negative Staphylococcus (GC 4549),Staphylococcus sp.,2 µg/mL
same,MIC Coagulase Negative Staphylococcus (GC 4551),Staphylococcus sp.,16 µg/mL
same,MIC Coagulase Negative Staphylococcus (GC 6257),Staphylococcus sp.,8 µg/mL
same,MIC Staphylococcus aureus (ATCC 29213),Staphylococcus sp.,64 µg/mL
same,MIC Staphylococcus aureus (GC 1131),Staphylococcus sp.,64 µg/mL
same,MIC Staphylococcus aureus (GC 3051),Staphylococcus sp.,64 µg/mL
same,MIC Staphylococcus aureus (GC 3053),Staphylococcus sp.,32 µg/mL
same,MIC Staphylococcus aureus (GC 4541),Staphylococcus sp.,64 µg/mL
same,MIC Staphylococcus aureus (GC 4542),Staphylococcus sp.,64 µg/mL
same,MIC Staphylococcus aureus (GC 4544),Staphylococcus sp.,16 µg/mL
same,MIC Staphylococcus aureus (GC 4545),Staphylococcus sp.,16 µg/mL
same,MIC Staphylococcus aureus SMITH (GC 4543),Staphylococcus sp.,32 µg/mL
same,MIC Staphylococcus aureus-SMITH (GC 4543),Staphylococcus sp.,32 µg/mL
same,MIC Staphylococcus haemolyticus (GC 4546),Staphylococcus sp.,64 µg/mL
